Source: patent US11352350B2, “IRAK degraders and uses thereof” (Kymera Therapeutics, Inc., priority 2018, dated 2022)
Read-outs that look alike come from different tables or passages of the source.

Legend:
U2932 = U2932 viability, CTG; assay type: cell-based; conditions: Homo sapiens, U2932
OCI-LY19 = OCI-LY19 viability, CTG; assay type: cell-based; conditions: Homo sapiens, OCI-LY19
SU-DHL2 = SU-DHL2 viability, CTG; assay type: cell-based; conditions: Homo sapiens, SU-DHL-2
IKAROS = IKAROS (Homo sapiens (Human), UniProt Q13422+Q96SW2); assay: IKAROS degradation in OCI-LY10 (DC50); assay type: cell-based
IRAK4 [1] = target: T1, IRAK4 (Homo sapiens (Human), UniProt Q9NWZ3); assay: IRAK4 WB degradation (DC50); assay type: cell-based
[2] = Oral exposure / bioavailability of I-75; assay type: in vivo, rat, dog, and monkey; conditions: FIG. 11
IRAK4 [3] = target: T1, IRAK4; assay: IRAK4 quantification in xenograft tumors by UPLC-MS/MS (tumor PD); assay type: in vivo, mouse; conditions: OCI-LY10 xenograft-bearing mice, oral dosing; FIG. 14
Description: At termination: At pre-determined time points based on study design, animals were humanely sacrificed by CO2. Blood was obtained by cardiac puncture for isolation of plasma, any residual tumor was removed and divided in 2 portions, 1 (minimal) for terminal compound exposure and 1 to determine IRAK4 and actin. Compound was determined in tumor and plasma using LC/MS with calibrated standards.
Interleukin-1 receptor-associated kinase 4 (IRAK4) was quantified in human OCI-LY10 and TMD8 xenograft tumors, together with mouse splenocytes and peripheral blood mononuclear cells (PBMCs), by ultra-performance liquid chromatography-tandem mass spectrometry (UPLC-MS/MS). The concentrations of IRAK4 were normalized by the concentrations of actin in the respective samples. […]
Signature peptide concentrations were quantitated using a sensitive and specific targeted LC-MS/MS method. […]
Signature peptide levels (LAVAIK, […]) were quantified by UPLC-MS/MS. […] A SCIEX TripleTOF 6600 LC-MS/MS system was used for the detection and quantitation of analytes. The intensities of the analytes and ISs were determined by integration of extracted ion peak areas using Analyst and MultiQuant 3.0 software. […] Measured peptide levels were corrected for sample work up and converted to actual protein concentrations in ng/mg total protein of cell lysate. […]

IRAK4 [4] = target: IRAK4 (Mus musculus (Mouse), UniProt Q8R4K2); assay: In vivo IRAK4 degradation in BALB/c mouse spleen (air pouch study); conditions: three PO doses; FIG. 8
Description: Dosing of Degrader: Mice were dosed orally at 10 mL/kg with suspensions above, giving 10 mg/kg, 30 mg/kg and 100 mg/kg final dose levels, three times at 8-hour intervals.
Termination, Cell Collection and Data: Four hours after MSU/saline injection, the mice were anesthetized and humanely exsanguinated. The spleens were removed, halved, flash frozen in labeled Eppendorf tubes in liquid nitrogen, and stored at −80° C. for determination of IRAK4 using targeted MS/MS with labeled peptide internal standard. Immediately after the bleed, 3 ml 10 U/mL heparinized saline was injected into the air pouch. The air pouch was gently massaged, the contents immediately removed, and the exudate volume recorded. After allowing the MSU crystals to settle out for fifteen minutes in an ice bath, an aliquot of the exudate was transferred to labeled Eppendorf tubes for differential white blood cell counts, including neutrophils.

T1 sequence (Q9NWZ3 whole entry): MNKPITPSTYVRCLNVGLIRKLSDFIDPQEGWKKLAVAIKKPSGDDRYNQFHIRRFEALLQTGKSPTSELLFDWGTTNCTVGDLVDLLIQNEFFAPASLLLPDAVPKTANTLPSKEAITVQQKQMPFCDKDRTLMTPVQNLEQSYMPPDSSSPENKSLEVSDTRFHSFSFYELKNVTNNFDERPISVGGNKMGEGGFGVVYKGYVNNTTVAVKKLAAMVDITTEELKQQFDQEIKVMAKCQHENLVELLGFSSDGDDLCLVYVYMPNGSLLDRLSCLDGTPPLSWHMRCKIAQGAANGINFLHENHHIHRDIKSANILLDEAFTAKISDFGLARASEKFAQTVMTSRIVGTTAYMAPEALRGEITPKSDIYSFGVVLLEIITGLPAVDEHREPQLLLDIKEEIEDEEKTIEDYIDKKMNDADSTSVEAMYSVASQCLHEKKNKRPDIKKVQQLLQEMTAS
IRAK4 (Mus musculus (Mouse), UniProt Q8R4K2), sequence (Q8R4K2 whole entry): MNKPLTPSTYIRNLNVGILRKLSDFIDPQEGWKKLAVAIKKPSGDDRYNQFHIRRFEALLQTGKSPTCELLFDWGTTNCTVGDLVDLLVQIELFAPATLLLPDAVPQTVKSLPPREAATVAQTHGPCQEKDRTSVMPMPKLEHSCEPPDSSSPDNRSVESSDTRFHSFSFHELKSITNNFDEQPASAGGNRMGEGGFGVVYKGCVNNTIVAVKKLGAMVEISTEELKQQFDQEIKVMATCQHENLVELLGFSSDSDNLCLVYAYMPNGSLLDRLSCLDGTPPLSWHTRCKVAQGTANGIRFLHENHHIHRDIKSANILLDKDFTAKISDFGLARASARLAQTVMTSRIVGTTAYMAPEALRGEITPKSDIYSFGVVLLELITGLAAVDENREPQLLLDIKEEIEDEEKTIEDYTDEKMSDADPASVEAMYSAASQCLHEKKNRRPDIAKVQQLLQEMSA
IKAROS, sequence (Q13422 whole entry): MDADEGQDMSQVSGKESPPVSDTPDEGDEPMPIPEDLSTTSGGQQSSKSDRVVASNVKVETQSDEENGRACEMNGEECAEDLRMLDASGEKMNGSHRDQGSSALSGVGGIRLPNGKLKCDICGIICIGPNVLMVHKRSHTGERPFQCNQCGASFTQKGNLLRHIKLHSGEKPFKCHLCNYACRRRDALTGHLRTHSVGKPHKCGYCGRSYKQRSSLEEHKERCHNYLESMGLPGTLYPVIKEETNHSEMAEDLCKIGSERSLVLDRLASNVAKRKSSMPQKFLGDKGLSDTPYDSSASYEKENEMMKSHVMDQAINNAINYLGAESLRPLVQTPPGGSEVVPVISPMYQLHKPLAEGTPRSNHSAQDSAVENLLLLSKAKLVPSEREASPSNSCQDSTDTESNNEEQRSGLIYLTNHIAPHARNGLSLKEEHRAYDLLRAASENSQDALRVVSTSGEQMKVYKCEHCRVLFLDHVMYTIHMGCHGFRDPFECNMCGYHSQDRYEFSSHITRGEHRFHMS
IKAROS, sequence (Q96SW2 whole entry): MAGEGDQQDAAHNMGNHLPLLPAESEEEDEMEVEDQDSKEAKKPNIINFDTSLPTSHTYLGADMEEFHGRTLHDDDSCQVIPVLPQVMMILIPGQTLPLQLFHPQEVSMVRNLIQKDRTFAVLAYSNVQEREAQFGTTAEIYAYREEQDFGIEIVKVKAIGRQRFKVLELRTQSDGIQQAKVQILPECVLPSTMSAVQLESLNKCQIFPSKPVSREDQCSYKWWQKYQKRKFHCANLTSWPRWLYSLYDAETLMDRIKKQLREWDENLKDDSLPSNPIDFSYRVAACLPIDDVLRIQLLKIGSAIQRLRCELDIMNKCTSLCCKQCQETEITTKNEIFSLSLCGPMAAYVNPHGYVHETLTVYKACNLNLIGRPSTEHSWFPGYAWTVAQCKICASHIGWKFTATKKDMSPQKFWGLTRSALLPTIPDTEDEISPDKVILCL
IKAROS, sequence (Q16531 whole entry partner): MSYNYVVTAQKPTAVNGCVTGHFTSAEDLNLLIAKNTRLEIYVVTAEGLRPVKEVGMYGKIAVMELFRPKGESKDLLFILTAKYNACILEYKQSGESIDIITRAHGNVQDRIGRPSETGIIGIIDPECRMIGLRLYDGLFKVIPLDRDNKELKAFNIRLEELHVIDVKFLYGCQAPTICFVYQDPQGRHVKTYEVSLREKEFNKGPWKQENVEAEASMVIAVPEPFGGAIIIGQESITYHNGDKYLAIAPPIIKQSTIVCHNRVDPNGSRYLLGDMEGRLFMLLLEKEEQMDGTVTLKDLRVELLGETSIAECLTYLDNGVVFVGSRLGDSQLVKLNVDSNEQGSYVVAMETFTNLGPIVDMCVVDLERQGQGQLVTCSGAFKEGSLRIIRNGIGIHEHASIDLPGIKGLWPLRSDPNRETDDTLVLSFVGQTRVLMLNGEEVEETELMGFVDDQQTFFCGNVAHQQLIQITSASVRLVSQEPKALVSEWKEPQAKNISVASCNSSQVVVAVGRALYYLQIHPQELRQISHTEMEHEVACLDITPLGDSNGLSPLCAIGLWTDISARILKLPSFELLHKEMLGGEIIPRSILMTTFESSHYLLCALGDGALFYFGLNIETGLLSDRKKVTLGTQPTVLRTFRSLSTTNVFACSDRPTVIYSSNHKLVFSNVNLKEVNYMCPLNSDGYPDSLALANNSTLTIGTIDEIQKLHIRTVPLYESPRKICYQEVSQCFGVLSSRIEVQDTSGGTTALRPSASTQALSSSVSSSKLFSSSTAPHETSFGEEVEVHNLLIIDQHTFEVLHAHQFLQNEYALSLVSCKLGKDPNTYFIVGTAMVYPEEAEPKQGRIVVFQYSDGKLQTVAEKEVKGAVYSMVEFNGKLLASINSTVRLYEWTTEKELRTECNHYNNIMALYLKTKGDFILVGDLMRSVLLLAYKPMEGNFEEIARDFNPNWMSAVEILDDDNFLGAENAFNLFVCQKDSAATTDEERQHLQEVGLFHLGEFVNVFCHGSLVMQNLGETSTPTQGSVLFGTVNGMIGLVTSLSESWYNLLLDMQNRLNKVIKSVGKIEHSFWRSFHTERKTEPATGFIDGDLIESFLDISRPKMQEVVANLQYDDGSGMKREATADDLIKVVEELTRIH

SMILES | IC50 (U2932; MYD88 WT Lines, read-out: U2932 Viability, CTG IC50) | IC50 (U2932; MYD88 WT, read-out: U2932 CTG IC50) | IC50 (OCI-LY19; MYD88 WT Lines, read-out: OCI-LY19 Viability, CTG IC50) | IC50 (OCI-LY19; MYD88 WT, read-out: OCI-LY19 CTG IC50) | IC50 (SU-DHL2; MYD88 MUT, read-out: SU-DHL2 CTG IC50) | IC50 (SU-DHL2; MYD88 Mutant Lines, read-out: SU-DHL2 Viability, CTG IC50) | DC50 (IKAROS) | DC50 (IRAK4 [1]) | oral bioavailability ([2]; rat, dog, and monkey) | oral exposure in plasma ([2]; up to 300 mg/kg) | degradation of IRAK4 correlating with tumor regression (IRAK4 [3]) | IRAK4 in BALB/c mouse spleen (IRAK4 [4])
CN(C[C@H]1CC[C@H](n2cc(NC(=O)c3coc(-c4ccnc(NCC5CC5)c4)n3)c(C(F)F)n2)CC1)C1CCN(Cc2cccc3c2n(C)c(=O)n3C2CCC(=O)NC2=O)CC1 (stereo partly drawn) [I-75, 2-(2-((cyclopropylmethyl)amino)pyridin-4-yl)-N-(3-(difluoromethyl)-1-((1r,4r)-4-(((1-((1-(2,6-dioxopiperidin-3-yl)-3-methyl-2-oxo-2,3-dihydro-1H-benzo[d]imidazol-4-yl)methyl)piperidin-4-yl)(methyl)amino)methyl)cyclohexyl)-1H-pyrazol-4-yl)oxazole-4-carboxamide] | 374 nM | 374 nM | 480 nM | 480 nM | 290 nM | 290 nM | > 100 nM | 23 nM | oral bioavailable | dose proportional oral exposure in plasma | > 75% | –
CN(CCCOCCCc1cccc2c1n(C)c(=O)n2C1CCC(=O)NC1=O)C[C@H]1CC[C@H](n2cc(NC(=O)c3coc(-c4ccnc(NCC5CC5)c4)n3)c(C(F)F)n2)CC1 (mixture of isomers) [I-30, 2-[2-(Cyclopropylmethylamino)-4-pyridyl]-N-[3-(difluoromethyl)-1-[4-[[3-[3-[1-(2,6-dioxo-3-piperidyl)-3-methyl-2-oxo-benzimidazol-4-yl]propoxy]propyl-methyl-amino]methyl]cyclohexyl]pyrazol-4-yl] oxazole-4-carboxamide] | – | – | – | – | – | – | – | – | – | – | – | in vivo degradation of IRAK4
